Activity calls are given as the source filed them. The rule behind the calls is not given here.

Data on seven compounds can be found in ChEMBL document CHEMBL1133958, “Derivatives of (2R,3R,4S)-2-aminomethylpyrrolidine-3,4-diol are selective alpha-mannosidase inhibitors” (Bioorg Med Chem Lett, 2001).

The target of experiment [1] is T1, Alpha-glucosidase (Oryza sativa Japonica Group) (UniProt Q9LGC6).
T1 sequence (whole entry): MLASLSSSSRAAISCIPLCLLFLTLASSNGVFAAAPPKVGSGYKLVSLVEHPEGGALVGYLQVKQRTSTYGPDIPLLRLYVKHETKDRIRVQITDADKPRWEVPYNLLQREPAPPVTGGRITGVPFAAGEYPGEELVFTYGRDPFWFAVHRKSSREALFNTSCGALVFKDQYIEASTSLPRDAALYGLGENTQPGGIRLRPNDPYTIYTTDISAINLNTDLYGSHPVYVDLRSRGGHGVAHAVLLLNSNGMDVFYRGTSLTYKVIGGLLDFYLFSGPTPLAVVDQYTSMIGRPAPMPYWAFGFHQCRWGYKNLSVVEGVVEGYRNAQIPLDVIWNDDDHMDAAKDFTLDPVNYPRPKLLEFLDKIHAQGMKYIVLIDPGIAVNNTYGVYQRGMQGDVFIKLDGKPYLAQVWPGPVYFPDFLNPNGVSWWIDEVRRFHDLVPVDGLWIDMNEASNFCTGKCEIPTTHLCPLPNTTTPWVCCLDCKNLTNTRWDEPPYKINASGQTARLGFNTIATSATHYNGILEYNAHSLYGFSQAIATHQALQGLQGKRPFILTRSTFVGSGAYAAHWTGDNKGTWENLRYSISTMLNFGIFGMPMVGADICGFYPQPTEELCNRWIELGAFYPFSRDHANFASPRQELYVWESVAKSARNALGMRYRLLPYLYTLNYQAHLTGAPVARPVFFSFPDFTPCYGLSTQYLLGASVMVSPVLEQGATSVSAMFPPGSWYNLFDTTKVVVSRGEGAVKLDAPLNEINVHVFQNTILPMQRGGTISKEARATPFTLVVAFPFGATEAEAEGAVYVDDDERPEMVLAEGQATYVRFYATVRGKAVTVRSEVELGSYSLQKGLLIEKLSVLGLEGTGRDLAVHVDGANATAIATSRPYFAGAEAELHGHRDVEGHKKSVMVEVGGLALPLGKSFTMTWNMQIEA
Nature of the experiment: Percentage inhibition of Alpha-glucosidase from Rice (maltase) at 1 mM; […].

Experiment [2] relates to Saccharomyces cerevisiae. Briefly: Percentage inhibition of Alpha-glucosidase from Baker yeast (isomaltase) at 1 mM.
Experiment [3] relates to Saccharomyces cerevisiae. Briefly: Percentage inhibition of Alpha-glucosidase from Yeast (maltase) at 1 mM; […].
Experiment [4] deals with Glucoamylase (Aspergillus niger) (UniProt P69328). Nature of the experiment: Percentage inhibition of Alpha-glucosidase from Aspergillus niger (amyloglucosidase) at 1 mM; No inhibition.
Chain of Glucoamylase (Aspergillus niger) (P69328 whole entry): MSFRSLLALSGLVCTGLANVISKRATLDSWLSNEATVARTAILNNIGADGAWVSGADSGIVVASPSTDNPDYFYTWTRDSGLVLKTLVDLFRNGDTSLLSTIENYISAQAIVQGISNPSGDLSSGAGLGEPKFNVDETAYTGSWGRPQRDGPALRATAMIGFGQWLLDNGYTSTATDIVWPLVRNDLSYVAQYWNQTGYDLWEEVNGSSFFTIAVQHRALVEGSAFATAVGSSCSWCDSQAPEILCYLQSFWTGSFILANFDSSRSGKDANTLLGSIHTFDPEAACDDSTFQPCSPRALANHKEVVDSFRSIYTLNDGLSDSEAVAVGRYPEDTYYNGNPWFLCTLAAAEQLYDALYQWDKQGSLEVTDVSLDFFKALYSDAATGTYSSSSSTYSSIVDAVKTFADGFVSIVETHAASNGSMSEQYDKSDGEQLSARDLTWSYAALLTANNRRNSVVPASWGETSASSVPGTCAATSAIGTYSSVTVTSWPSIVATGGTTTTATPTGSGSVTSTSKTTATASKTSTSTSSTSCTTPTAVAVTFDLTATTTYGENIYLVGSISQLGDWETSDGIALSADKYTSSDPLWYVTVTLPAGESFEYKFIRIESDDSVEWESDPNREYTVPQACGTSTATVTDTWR
Experiment [5] addresses Beta-glucosidase A (Caldicellulosiruptor saccharolyticus) (UniProt P10482). Nature of the experiment: Percentage inhibition of Beta-Glucosidase from Caldocellum saccharol. at 1 mM.
Experiment [6] deals with T2, Glucoamylase 1 (Rhizopus oryzae) (UniProt P07683).
T2 sequence (whole entry): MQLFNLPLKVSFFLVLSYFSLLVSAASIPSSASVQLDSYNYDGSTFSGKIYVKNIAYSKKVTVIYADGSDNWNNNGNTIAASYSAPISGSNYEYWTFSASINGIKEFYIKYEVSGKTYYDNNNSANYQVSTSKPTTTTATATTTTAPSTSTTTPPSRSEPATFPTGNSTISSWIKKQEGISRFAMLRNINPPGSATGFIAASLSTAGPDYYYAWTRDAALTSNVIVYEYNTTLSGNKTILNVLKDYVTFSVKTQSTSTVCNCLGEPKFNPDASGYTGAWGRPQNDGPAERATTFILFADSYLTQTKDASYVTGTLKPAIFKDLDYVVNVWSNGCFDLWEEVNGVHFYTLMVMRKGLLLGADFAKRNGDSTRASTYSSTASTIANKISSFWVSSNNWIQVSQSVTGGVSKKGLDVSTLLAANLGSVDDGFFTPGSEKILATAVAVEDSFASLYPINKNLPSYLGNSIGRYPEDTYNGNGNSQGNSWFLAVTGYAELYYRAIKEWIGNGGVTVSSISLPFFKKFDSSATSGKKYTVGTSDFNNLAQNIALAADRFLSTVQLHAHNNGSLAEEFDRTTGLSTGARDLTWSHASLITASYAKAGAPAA
Nature of the experiment: Percentage inhibition of Alpha-glucosidase from Rhizopus mold (amyloglucosidase) at 1 mM concentration; No inhibition. As to conditions: Rhizopus arrhizus.

The nature of experiment [7]: Percentage inhibition of Beta-galactosidase from Aspergillus oryzae at 1 mM; No inhibition.
The target in experiment [8] is T3, Beta-galactosidase (Bos taurus) (UniProt Q58D55).
T3 sequence (whole entry): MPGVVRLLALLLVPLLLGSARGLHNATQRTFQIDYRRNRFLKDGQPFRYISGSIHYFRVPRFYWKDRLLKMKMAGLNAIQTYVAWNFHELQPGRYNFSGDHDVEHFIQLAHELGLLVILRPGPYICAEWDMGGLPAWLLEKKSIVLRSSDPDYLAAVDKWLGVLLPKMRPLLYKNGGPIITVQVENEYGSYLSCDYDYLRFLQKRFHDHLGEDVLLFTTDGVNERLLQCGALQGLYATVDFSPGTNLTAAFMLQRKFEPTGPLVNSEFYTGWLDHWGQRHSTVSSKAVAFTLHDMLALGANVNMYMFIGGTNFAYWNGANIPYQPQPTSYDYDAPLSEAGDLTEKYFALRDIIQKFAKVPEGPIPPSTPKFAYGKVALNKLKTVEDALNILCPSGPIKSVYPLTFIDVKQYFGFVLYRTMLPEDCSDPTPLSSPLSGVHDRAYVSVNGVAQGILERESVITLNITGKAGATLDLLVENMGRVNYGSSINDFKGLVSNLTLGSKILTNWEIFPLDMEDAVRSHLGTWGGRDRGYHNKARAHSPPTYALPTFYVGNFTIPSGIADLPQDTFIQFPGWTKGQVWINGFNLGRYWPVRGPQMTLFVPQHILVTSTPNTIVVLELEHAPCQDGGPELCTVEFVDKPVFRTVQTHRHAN
Nature of the experiment: Percentage inhibition of Beta-galactosidase from Bovine liver at 1 mM concentration; No inhibition.

Experiment [9] has as its target T4, Beta-galactosidase (Aspergillus niger) (UniProt P29853).
T4 sequence (whole entry): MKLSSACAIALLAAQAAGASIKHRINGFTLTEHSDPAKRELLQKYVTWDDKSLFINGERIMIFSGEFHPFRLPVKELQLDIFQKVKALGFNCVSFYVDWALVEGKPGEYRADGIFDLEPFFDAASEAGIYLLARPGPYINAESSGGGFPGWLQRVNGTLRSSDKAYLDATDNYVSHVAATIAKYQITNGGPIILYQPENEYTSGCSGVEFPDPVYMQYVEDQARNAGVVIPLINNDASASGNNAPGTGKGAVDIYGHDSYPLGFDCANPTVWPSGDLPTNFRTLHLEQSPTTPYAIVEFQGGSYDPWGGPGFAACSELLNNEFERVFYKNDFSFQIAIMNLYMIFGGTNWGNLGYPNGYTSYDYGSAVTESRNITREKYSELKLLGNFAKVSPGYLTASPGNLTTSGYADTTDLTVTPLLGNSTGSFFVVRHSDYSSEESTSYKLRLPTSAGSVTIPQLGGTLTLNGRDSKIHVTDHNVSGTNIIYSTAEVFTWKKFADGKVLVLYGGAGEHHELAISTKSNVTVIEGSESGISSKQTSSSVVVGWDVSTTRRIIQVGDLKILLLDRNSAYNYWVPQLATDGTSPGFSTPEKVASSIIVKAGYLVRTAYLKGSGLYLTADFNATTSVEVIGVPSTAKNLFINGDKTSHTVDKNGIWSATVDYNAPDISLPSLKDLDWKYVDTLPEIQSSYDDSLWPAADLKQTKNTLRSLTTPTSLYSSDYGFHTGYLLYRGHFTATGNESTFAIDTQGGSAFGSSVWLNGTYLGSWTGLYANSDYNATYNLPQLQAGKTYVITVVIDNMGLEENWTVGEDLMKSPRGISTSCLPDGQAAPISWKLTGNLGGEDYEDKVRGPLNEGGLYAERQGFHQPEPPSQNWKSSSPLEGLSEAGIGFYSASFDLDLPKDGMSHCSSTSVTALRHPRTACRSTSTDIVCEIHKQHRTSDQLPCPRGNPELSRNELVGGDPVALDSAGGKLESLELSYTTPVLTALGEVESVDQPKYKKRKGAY
Briefly: Percentage inhibition of Beta-galactosidase from Aspergillus niger at 1 mM concentration; […].

Experiment [10] deals with Beta-galactosidase (Escherichia coli K-12) (UniProt P00722). Nature of the experiment: Percentage inhibition of Beta-galactosidase from Escherichia coli at 1 mM concentration; No inhibition.
Chain of Beta-galactosidase (Escherichia coli K-12) (P00722 whole entry): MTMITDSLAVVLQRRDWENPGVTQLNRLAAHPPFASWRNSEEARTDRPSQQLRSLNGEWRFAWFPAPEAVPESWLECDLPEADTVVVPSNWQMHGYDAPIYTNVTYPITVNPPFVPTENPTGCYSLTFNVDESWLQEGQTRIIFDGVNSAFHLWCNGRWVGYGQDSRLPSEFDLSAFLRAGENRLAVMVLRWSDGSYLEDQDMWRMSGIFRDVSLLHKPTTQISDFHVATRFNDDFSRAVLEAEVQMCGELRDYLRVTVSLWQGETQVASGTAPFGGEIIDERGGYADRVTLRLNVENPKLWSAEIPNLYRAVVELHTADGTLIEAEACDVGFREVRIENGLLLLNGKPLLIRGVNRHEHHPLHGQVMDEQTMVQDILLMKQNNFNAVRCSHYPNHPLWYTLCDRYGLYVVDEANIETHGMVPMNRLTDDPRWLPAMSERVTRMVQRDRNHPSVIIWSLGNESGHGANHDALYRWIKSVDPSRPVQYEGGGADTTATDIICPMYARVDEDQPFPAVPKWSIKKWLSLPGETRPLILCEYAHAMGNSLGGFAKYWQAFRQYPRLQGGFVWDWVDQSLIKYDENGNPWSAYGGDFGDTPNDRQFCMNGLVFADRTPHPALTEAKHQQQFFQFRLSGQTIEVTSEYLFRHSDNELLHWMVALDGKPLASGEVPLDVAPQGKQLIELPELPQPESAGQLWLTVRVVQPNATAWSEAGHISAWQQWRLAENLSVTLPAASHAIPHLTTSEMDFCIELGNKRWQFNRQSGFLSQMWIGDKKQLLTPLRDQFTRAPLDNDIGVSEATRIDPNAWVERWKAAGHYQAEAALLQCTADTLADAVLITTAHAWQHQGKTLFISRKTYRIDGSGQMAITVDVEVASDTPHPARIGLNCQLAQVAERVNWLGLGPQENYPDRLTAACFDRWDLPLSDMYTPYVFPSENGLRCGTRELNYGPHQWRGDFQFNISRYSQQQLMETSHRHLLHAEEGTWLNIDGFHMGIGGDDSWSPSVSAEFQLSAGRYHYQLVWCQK
Experiment [11] deals with Alpha-mannosidase (Prunus dulcis). Briefly: Percentage inhibition of Alpha-mannosidase from Almond at 1 mM.
Experiment [12] in a line: Percentage inhibition of Beta-galactosidase from Jack bean at 1 mM concentration; No inhibition. The following applies: Canavalia ensiformis.
For experiment [13], the system named is Saccharomyces cerevisiae. Nature of the experiment: Percentage inhibition of Alpha-glucosidase from Baker yeast (isomaltase) at 1 mM; No inhibition.
Experiment [14] deals with Beta-glucosidase A (Caldicellulosiruptor saccharolyticus) (UniProt P10482). Nature of the experiment: Percentage inhibition of Beta-Glucosidase from Caldocellum saccharol. at 1 mM; No inhibition.
Chain of Beta-glucosidase A (Caldicellulosiruptor saccharolyticus) (P10482 whole entry): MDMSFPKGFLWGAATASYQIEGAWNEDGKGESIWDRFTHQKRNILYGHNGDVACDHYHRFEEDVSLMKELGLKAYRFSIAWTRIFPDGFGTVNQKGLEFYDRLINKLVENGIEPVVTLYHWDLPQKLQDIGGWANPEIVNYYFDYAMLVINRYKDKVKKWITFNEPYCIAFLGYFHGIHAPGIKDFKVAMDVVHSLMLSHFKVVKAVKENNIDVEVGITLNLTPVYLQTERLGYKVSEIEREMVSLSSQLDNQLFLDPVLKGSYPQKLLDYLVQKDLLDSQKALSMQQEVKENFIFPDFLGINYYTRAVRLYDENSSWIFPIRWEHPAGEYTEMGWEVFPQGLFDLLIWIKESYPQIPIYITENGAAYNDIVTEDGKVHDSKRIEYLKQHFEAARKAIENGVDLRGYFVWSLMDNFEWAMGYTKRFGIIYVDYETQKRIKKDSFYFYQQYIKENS
Experiment [15] has as its target T3, Beta-galactosidase (Bos taurus). Briefly: Percentage inhibition of Beta-galactosidase from Bovine liver at 1 mM concentration.
Experiment [16] concerns the target Beta-galactosidase (Escherichia coli K-12) (UniProt P00722). Nature of the experiment: Percentage inhibition of Beta-galactosidase from Escherichia coli at 1 mM concentration.
The subject of experiment [17] is Saccharomyces cerevisiae. Briefly: Percentage inhibition of Alpha-glucosidase from Yeast (maltase) at 1 mM.
Experiment [18] deals with T4, Beta-galactosidase (Aspergillus niger). Nature of the experiment: Percentage inhibition of Beta-galactosidase from Aspergillus niger at 1 mM concentration.
The nature of experiment [19]: Inhibitory activity towards Alpha-glucosidase from Baker yeast (isomaltase). On the set-up: species or system Saccharomyces cerevisiae.

With `OC1CNC(CNCc2cccs2)C1O` (stereo not drawn), the inhibition result in experiment [1], in experiment [3], in experiment [4], in experiment [6], in experiment [7] and in experiment [8] was “inactive” each time. Besides, the inhibition entry in [9] and in [10] was “inactive” each time. Moreover, the results for the inhibition in experiment [2], in [5] and in [11] were 23%, 38% and 68%, respectively.
`CC(=O)N(Cc1ccccc1)CC1NCC(O)C1O` (stereo not drawn): the inhibition result in [1], in experiment [3], in [4], in [6], in [7] and in [8] was “inactive” in each case. Besides, the inhibition result in [9], in [10] and in [12] was “inactive” each time. Besides, the inhibition in experiment [2] worked out at 33%; in experiment [5], 43%.
With `OC1CNC(CCNc2ccccc2)C1O` (stereo not drawn), the inhibition entry in [1], in [13], in [3], in [4], in experiment [14] and in experiment [6] was “inactive” throughout. The inhibition result in [7], in experiment [8], in [9], in [10] and in experiment [12] was “inactive” in each case.
Regarding `OCC(O)[C@H]1NC[C@H](O)[C@@H]1O` (stereo partly drawn), the inhibition entry in experiment [1], in experiment [13], in experiment [3], in [4], in [6] and in experiment [7] was “inactive” throughout. Also, the inhibition result in experiment [9], in experiment [10] and in experiment [12] was “inactive” throughout. The inhibition stood at 40% in experiment [5] and 32% in experiment [15].
As to `C[C@@H](NCC1NCC(O)C1O)c1ccccc1` (stereo partly drawn), the inhibition entry in [1], in experiment [3], in experiment [4], in [6], in experiment [7] and in experiment [8] was “inactive” in each case. Also, in [9], the inhibition entry is “inactive”. For the same compound, the inhibition in [2] was 34%; in [5], 49%; in [16] it was 34%; in experiment [11], 48%.
Take `OC1CNC(CNC2CCCC2)C1O` (stereo not drawn): the inhibition result in [1], in [4], in [6], in experiment [7], in [8] and in experiment [10] was “inactive” throughout. The inhibition was 92% in experiment [2]; 30% in [17]; 29% in experiment [5]; 26% in experiment [18]; 53% in experiment [11]. In addition, the IC50 in experiment [19] is 170 µM. The compound further yielded a Ki in experiment [19] of 71 µM.
Regarding `OC1CNC(CNCc2ccccc2)C1O` (stereo not drawn), the inhibition entry in experiment [1], in [13], in experiment [3], in experiment [4], in experiment [14] and in [6] was “inactive” each time. Further, the inhibition entry in experiment [7] and in experiment [9] was “inactive” throughout. Further, the inhibition in experiment [16] came to 24%; in experiment [15] it was 26%.
